Measurements taken from patent US20250049036A1 (priority 2021, published 2025).

Columns and labels:
Parastagonospora nodorum = Parastagonospora nodorum (PARANO) spore growth inhibition in liquid medium, 96-well microtiter plate, OD 600; type: cell-based; details: spore suspension in PDB liquid medium, 18° C., 5-6 days, OD at 600, read-out: control compared to the untreated check
Summary of the method: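 Read-out is percent growth inhibition from OD at 600 after 5-6 days at 18° C. Compounds, dissolved in DMSO, were diluted in potato dextrose broth and combined in equal volume with a 10^5 spores/ml suspension of PARANO.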

Pyricularia oryzae = assay: microbe, parasite or virus in culture; type: cell-based; details: 168 h, read-out: control compared to the untreated check
Phakopsora pachyrhizi = Phakopsora pachyrhizi test on soybean, preventive, greenhouse; type: in vivo; details: preventive spray on soybean, inoculated one day after treatment, read-out: control (efficacy, disease severity) compared to the untreated check
Summary of the method: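 Preventive protocol: plants inoculated with a 2×10^5 P. pachyrhizi conidial suspension one day after spray application at the stated rate, then incubated at 22-24 °C and 80-90% RH. Compound was applied from 2% DMSO/acetone diluted in emulsified water.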

Corynespora cassiicola = Corynespora cassiicola (leaf spot of tomato) mycelial radial growth on potato dextrose agar; type: cell-based; details: 168 h, 25° C., seven days, read-out: control compared to the untreated check
Experimental: (§1) The compounds were dissolved in 0.3% dimethyl sulfoxide and then added to potato dextrose agar medium just prior to dispensing it into petri dishes. 5 mL medium, with the compound in the desired concentration, was dispensed into 60 mm sterile petri-plates. After solidification, each plate was seeded with a 5 mm size mycelial disc taken from the periphery of an actively growing virulent culture plate. The plates were incubated in growth chambers at 25° C. temperature and 70% relative humidity for seven days and the radial growth was measured and compared to the one of the untreated control.

Fusarium culmorum = Fusarium culmorum test on wheat, preventive, greenhouse; type: in vivo; details: preventive spray on wheat, inoculated one day after treatment, read-out: control (efficacy, disease severity) compared to the untreated check
Experimental: The respective compound was dissolved in 2% dimethyl sulfoxide/acetone and then mixed with water containing an emulsifier to a calibrated spray volume of 30 mL. Each spray solution was poured into a spray bottle for further application.
To test the preventive activity of a compound, healthy young wheat plants, raised in the greenhouse, were sprayed with the active compound preparation at the stated application rate inside the spray cabinets using hollow cone nozzles. One day after the treatment, the plants were inoculated with a spore suspension containing 2×10^6 Fusarium culmorum inoculum. The inoculated plants were then kept in a greenhouse chamber at 24° C. temperature and 80-90% relative humidity for disease expression.
A visual assessment of the compound's performance was carried out by rating the disease severity (0 100% scale) on treated plants 3, 7, 10 and 15 days after application. Efficacy (% control) of the compound was calculated by comparing the disease rating in the treatment with the one of the untreated control. The treated plants were also assessed for plant damage by recording symptoms like necrosis, chlorosis and stunting.

Venturia Inequalis = assay: Venturia inequalis (VENTIN) spore growth inhibition in liquid medium, 96-well microtiter plate, OD 600; type: cell-based; details: spore suspension in PDB liquid medium, 18° C., 15-18 days, OD at 600, read-out: control compared to the untreated check
Summary of the method: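 Venturia inequalis spores (10^5 spores/ml suspension) were grown in potato dextrose broth with test compounds dissolved in DMSO, mixing equal volumes of compound solution and spore suspension. Plates were incubated at 18 °C for 15–18 days. Growth was read as OD600 and converted to percent inhibition.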

Colletotrichum capsici = Colletotrichum capsici (anthracnose) mycelial radial growth on potato dextrose agar; type: cell-based; details: Colletotrichum truncatum, 168 h, 25° C., seven days, read-out: control compared to the untreated check
Summary of the method: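 Compounds in 0.3% DMSO were mixed into potato dextrose agar, and each plate was seeded with a 5 mm mycelial disc from an actively growing culture. Plates were incubated at 25° C and 60% relative humidity for seven days. Radial growth was compared with untreated control.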

Botrytis cinerea [1] = assay: Botrytis cinerea test on tomato, preventive, greenhouse; type: in vivo; details: preventive spray on bean/chili plants (heading: tomato), inoculated one day after treatment, read-out: control (efficacy, disease severity) compared to the untreated check
Alternaria solani = Alternaria solani (early blight of tomato/potato) mycelial radial growth on potato dextrose agar; type: cell-based; details: 168 h, 25° C., seven days, read-out: control compared to the untreated check
Experimental: as §1, with “60%” for “70%”

Botrytis cinerea [2] = assay: Botrytis cinerea liq. (BOTRCI) spore growth inhibition in liquid medium, 96-well microtiter plate, OD 405 nm; type: cell-based; details: spore suspension in YBA liquid medium, 22° C., 5-6 days, OD at 405 nm, read-out: control compared to the untreated check
Summary of the method: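 Spore suspension of B. cinerea (10^4 spores/ml) in YBA liquid medium mixed 1:1 with compound diluted from DMSO. Incubated at 22° C. for 5-6 days. Growth read as OD 405 nm; percent inhibition derived from treatment, untreated-control and blank readings.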

Botrytis cinerea [3] = assay: Botrytis cinerea (gray mold) mycelial radial growth on potato dextrose agar; type: cell-based; details: 168 h, 22° C., seven days, read-out: control compared to the untreated check
Summary of the method: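 Compounds in 0.3% DMSO were mixed into potato dextrose agar, and plates were seeded with 5 mm mycelial discs from actively growing virulent culture. After seven days at 22 °C and 90% relative humidity, radial growth was measured relative to untreated control.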

Phytophthora infestans [4] = assay: whole plant or invertebrate; type: in vivo, Phytophthora infestans on tomato; details: in Solanum lycopersicum, read-out: control (efficacy, disease severity) compared to the untreated check
Phytophthora infestans [5] = assay: microbe, parasite or virus in culture; type: cell-based; details: 168 h, read-out: control compared to the untreated check

Cn1ccc2cc(C(=O)NC(C)(C)Cc3ccc(Cl)cc3)cnc21 [Compound 43, N-(1-(4-chlorophenyl)-2-methylpropan-2-yl)-1-methyl-1H-pyrrolo[2,3-b]pyridine-5-carboxamide]
≥ 70%: inhibition of growth at 300 ppm (Parastagonospora nodorum) | inhibition of growth at 300 ppm (Pyricularia oryzae) | pest or weed control at 500 ppm (Phakopsora pachyrhizi) | inhibition of growth at 300 ppm (Corynespora cassiicola)

CC(C)CC(C)(Cc1ccccc1)NC(=O)c1cnc2c(c1)CCCC2 (stereo not shown) [Compound 44, N-(2,4-dimethyl-1-phenylpentan-2-yl)-5,6,7,8-tetrahydroquinoline-3-carboxamide]
≥ 70%: pest or weed control at 500 ppm (Fusarium culmorum) | inhibition of growth at 300 ppm (Parastagonospora nodorum) | inhibition of growth at 300 ppm (Venturia Inequalis) | inhibition of growth at 300 ppm (Pyricularia oryzae) | inhibition of growth at 300 ppm (Colletotrichum capsici) | pest or weed control at 500 ppm (Phakopsora pachyrhizi) | pest or weed control at 500 ppm (Botrytis cinerea [1])

Cc1ccc(CC(C)(C)NC(=O)c2cnc3c(ccn3C)c2)cc1 [Compound 50, 1-methyl-N-(2-methyl-1-(p-tolyl)propan-2-yl)-1H-pyrrolo[2,3-b] pyridine-5-carboxamide]
≥ 70%: pest or weed control at 500 ppm (Fusarium culmorum) | inhibition of growth at 300 ppm (Parastagonospora nodorum) | inhibition of growth at 300 ppm (Pyricularia oryzae) | inhibition of growth at 300 ppm (Alternaria solani) | inhibition of growth at 300 ppm (Botrytis cinerea [2]) | inhibition of growth at 300 ppm (Colletotrichum capsici) | pest or weed control at 500 ppm (Phakopsora pachyrhizi) | inhibition of growth at 300 ppm (Botrytis cinerea [3])

CC(C)CC(C)(Cc1ccccc1)NC(=O)c1cnc2c(c1)CCC2 (stereo not shown) [Compound 62, N-(2,4-dimethyl-1-phenylpentan-2-yl)-6,7-dihydro-5H-cyclopenta[b]pyridine-3-carboxamide]
≥ 70%: pest or weed control at 500 ppm (Fusarium culmorum) | inhibition of growth at 300 ppm (Venturia Inequalis) | inhibition of growth at 300 ppm (Colletotrichum capsici) | pest or weed control at 500 ppm (Phytophthora infestans [4]) | pest or weed control at 500 ppm (Phakopsora pachyrhizi) | pest or weed control at 500 ppm (Botrytis cinerea [1])

CC(c1ccccc1F)C(C)(C)NC(=O)c1cnc2c(c1)c(Br)cn2C (stereo not shown) [Compound 63, 3-bromo-N-(3-(2-fluorophenyl)-2-methylbutan-2-yl)-1-methyl-1H-pyrrolo[2,3-b]pyridine-5-carboxamide]
≥ 70%: pest or weed control at 500 ppm (Fusarium culmorum) | inhibition of growth at 300 ppm (Parastagonospora nodorum) | inhibition of growth at 300 ppm (Venturia Inequalis) | inhibition of growth at 300 ppm (Pyricularia oryzae) | inhibition of growth at 300 ppm (Botrytis cinerea [2]) | pest or weed control at 500 ppm (Phytophthora infestans [4]) | pest or weed control at 500 ppm (Phakopsora pachyrhizi) | pest or weed control at 500 ppm (Botrytis cinerea [1]) | inhibition of growth at 300 ppm (Botrytis cinerea [3])

CC(C)(Cc1ccccc1)NC(=O)c1cnc2c(c1)CCC2 [Compound 67, N-(2-methyl-1-phenylpropan-2-yl)-6,7-dihydro-5H-cyclopenta[b]pyridine-3-carboxamide]
≥ 70%: pest or weed control at 500 ppm (Fusarium culmorum) | inhibition of growth at 300 ppm (Parastagonospora nodorum) | inhibition of growth at 300 ppm (Venturia Inequalis) | inhibition of growth at 300 ppm (Botrytis cinerea [2]) | pest or weed control at 500 ppm (Phytophthora infestans [4]) | pest or weed control at 500 ppm (Phakopsora pachyrhizi) | pest or weed control at 500 ppm (Botrytis cinerea [1]) | inhibition of growth at 300 ppm (Botrytis cinerea [3])

CC(C)CC(C)(Cc1ccccc1)NC(=O)c1cnc2c(c1)OCCN2C (stereo not shown) [Compound 81, N-(2,4-dimethyl-1-phenylpentan-2-yl)-4-methyl-3,4-dihydro-2H-pyrido[3,2-b] [1,4]oxazine-7-carboxamide]
≥ 70%: pest or weed control at 500 ppm (Fusarium culmorum) | inhibition of growth at 300 ppm (Parastagonospora nodorum) | inhibition of growth at 300 ppm (Venturia Inequalis) | inhibition of growth at 300 ppm (Pyricularia oryzae) | inhibition of growth at 300 ppm (Colletotrichum capsici) | pest or weed control at 500 ppm (Phytophthora infestans [4]) | pest or weed control at 500 ppm (Botrytis cinerea [1])

COc1nc2c(ccn2C)cc1C(=O)NC(C)(Cc1ccccc1)CC(C)C (stereo not shown) [Compound 92, N-(2,4-dimethyl-1-phenylpentan-2-yl)-6-methoxy-1-methyl-1H-pyrrolo[2,3-b]pyridine-5-carboxamide]
≥ 70%: inhibition of growth at 300 ppm (Phytophthora infestans [5]) | pest or weed control at 500 ppm (Fusarium culmorum) | pest or weed control at 500 ppm (Botrytis cinerea [1])

Cc1cc2cc(C(=O)NC(C)(C)Cc3ccccc3)cnc2n1C [Compound 99, 1,2-dimethyl-N-(2-methyl-1-phenylpropan-2-yl)-1H-pyrrolo[2,3-b] pyridine-5-carboxamide]
≥ 70%: pest or weed control at 500 ppm (Fusarium culmorum) | inhibition of growth at 300 ppm (Parastagonospora nodorum) | inhibition of growth at 300 ppm (Pyricularia oryzae) | inhibition of growth at 300 ppm (Alternaria solani) | inhibition of growth at 300 ppm (Colletotrichum capsici) | pest or weed control at 500 ppm (Phakopsora pachyrhizi)

Cc1cc2cc(C(=O)NC(C)(C)Cc3ccc(Cl)cc3)cnc2n1C [Compound 101, N-(1-(4-chlorophenyl)-2-methylpropan-2-yl)-1,2-dimethyl-1H-pyrrolo[2,3-b]pyridine-5-carboxamide]
≥ 70%: pest or weed control at 500 ppm (Fusarium culmorum) | inhibition of growth at 300 ppm (Parastagonospora nodorum) | inhibition of growth at 300 ppm (Botrytis cinerea [2]) | inhibition of growth at 300 ppm (Colletotrichum capsici) | pest or weed control at 500 ppm (Phakopsora pachyrhizi) | inhibition of growth at 300 ppm (Botrytis cinerea [3])

Cc1ccc(CC(C)(C)NC(=O)c2cnc3c(c2)cc(C)n3C)cc1 [Compound 102, 1,2-dimethyl-N-(2-methyl-1-(p-tolyl)propan-2-yl)-1H-pyrrolo[2,3-b]pyridine-5-carboxamide]
≥ 70%: pest or weed control at 500 ppm (Fusarium culmorum) | inhibition of growth at 300 ppm (Parastagonospora nodorum) | inhibition of growth at 300 ppm (Venturia Inequalis) | inhibition of growth at 300 ppm (Colletotrichum capsici) | pest or weed control at 500 ppm (Phakopsora pachyrhizi) | pest or weed control at 500 ppm (Botrytis cinerea [1])

Cc1cc2cc(C(=O)NC(C)(C)Cc3ccccc3F)cnc2n1C [Compound 103, N-(1-(2-fluorophenyl)-2-methylpropan-2-yl)-1,2-dimethyl-1H-pyrrolo[2,3-b]pyridine-5-carboxamide]
≥ 70%: pest or weed control at 500 ppm (Fusarium culmorum) | inhibition of growth at 300 ppm (Parastagonospora nodorum) | inhibition of growth at 300 ppm (Colletotrichum capsici) | pest or weed control at 500 ppm (Phakopsora pachyrhizi)

CC(C)(C)NC(=O)c1cnc2ccsc2c1 [Compound 107, N-(tert-butyl)thieno[3,2-b] pyridine-6-carboxamide]
≥ 70%: inhibition of growth at 300 ppm (Venturia Inequalis) | pest or weed control at 500 ppm (Phakopsora pachyrhizi) | inhibition of growth at 300 ppm (Corynespora cassiicola)

Cc1cc(F)ccc1C(=O)OCC(C)(C)NC(=O)c1cnc2c(ccn2C)c1 [Compound 125, 2-methyl-2-(1-methyl-1H-pyrrolo[2,3-b]pyridine-5-carboxamido)propyl 4-fluoro-2-methylbenzoate]
≥ 70%: pest or weed control at 500 ppm (Phakopsora pachyrhizi) | pest or weed control at 500 ppm (Botrytis cinerea [1]) | inhibition of growth at 300 ppm (Corynespora cassiicola)

C=C(C)CC(C)(COc1ccccc1F)NC(=O)c1cnc2c(ccn2C)c1 (stereo not shown) [Compound 155, N-(1-(2-fluorophenoxy)-2,4-dimethylpent-4-en-2-yl)-1-methyl-1H-pyrrolo[2,3-b]pyridine-5-carboxamide]
≥ 70%: pest or weed control at 500 ppm (Fusarium culmorum) | inhibition of growth at 300 ppm (Parastagonospora nodorum) | inhibition of growth at 300 ppm (Venturia Inequalis) | inhibition of growth at 300 ppm (Colletotrichum capsici) | pest or weed control at 500 ppm (Phakopsora pachyrhizi)
